Measurements taken from patent EP1487791B1, “A NOVEL ANTIFUNGAL MOLECULE 2-(3,4-DIMETHYL-2,5-DIHYDRO-1H-PYRROL-2-YL)- METHYLETHYL PENTANOATE” (priority 2002, dated 2003).
In brackets after ≈: the same amount, converted by molar mass.

Key:
Assay type in all cases: cell-based
Aspergillus sp. = assay: Microbroth dilution assay, MIC over the three species; details: no visual growth of the three species of Aspergillus, 48 h
Experimental: (§1) Pathogenic strains of fungi were obtained from the Mycology Department of Vallabhbhai Patel Chest Institute, Delhi. All the strains were grown on Sabouraud dextrose agar at 37°C. The conidia form these cultures were harvested and suspended in Sabouraud maltose broth. The number of conidia was counted using haemocytometer and their number in the suspension was adjusted to as per need of the experiment.
The antifungal susceptibility of the fungi to various fractions or the purified component was assayed by the microbroth, dilution method (Forthergill A.W. and McGough A.W., 1995, Clin. Microbiol. Procedure Handbook. In Vitro susceptibility Testing of Yeast, 5.15.1-5.15.15). The fungal spores were harvested from 96-h cultures and their number adjusted to 1x10^6 per ml. The Sabouraud Dextrose medium was dissolved in glass double distilled water and autoclaved at 10 psi for 15 min. 90-µl medium was added into the wells of cell culture plates. The different concentrations of the extract, fractions or the purified compound were prepared in duplicate wells and then the wells were inoculated with 10 µl of spore suspension. The plates were incubated at 37°C and examined macroscopically after 48 h for the growth of fungal mycelia. The activity was represented as -ve if growth was there and +ve if medium appeared clear with out any growth of fungi. […]

A.fumigatus = assay: Disc diffusion assay
Experimental: as §1
The disc diffusion test was performed as per described in the section of details of invention. Amphotericin B 1.25 µg/disc was used in assay as positive control standard drug. Additional discs impregnated with equivalent amount of solvent were also used in the assay as negative controls (Fig: 5). […] Table 2: Antifungal activity of compound by disc diffusion method
The potency of the compound was determined with the help of standard curve constructed using amphotericin B as standard drug against A.fumigatus. Standard curve was prepared according to method given in the Indian Pharmacopoeia. The corrected values of diameter of zone of inhibition along with lowest and highest values were determined. These values were plotted on semilog paper to prepare standard curve. The value of diameter of zone of inhibition obtained for compound was put into the standard curve and corresponding dose producing the effect equivalent to amphotericin B was determined to find out the potency of the compound (Fig: 6).

RAW cells = test system: RAW cells
Experimental: The in vitro toxicity of the active molecule was studied by MTT assay using RAW cells (Mossman, T., 1983, J. Immunol. Methods, 65, 55-63).
The stock culture of RAW cells was obtained from National Facility for Cell and Tissue Culture, Pune. Cells were maintained in RPMI - 1640 medium supplemented with glutamine (2.3 gm/L), fetal calf serum (10% v/v) and gentamycin (50.0 mg/L) at 37°C in Nuair IR Autoflow water Jacketed carbon dioxide incubator.
The stock solution of the compound was prepared by dissolving 2.5 mg of the purified compound in minimum amount of DMSO and then diluted with double distilled water to make the final volume 1.0-ml. The different concentrations ranging from 1250.0 µg/ml to 19.5 µg/ml were tested in the cytotoxicity assay.
The cells were harvested at the log phase of growth confluency from the flask. The homogeneous suspension of cells was prepared in 2.0 ml of culture medium. The number of cells in the suspension was counted using a hemocytometer and the cell suspension was diluted in such a way so as to obtain 5x10^7 viable cells per ml. The viability of the cells was checked with trypan blue dye exclusion test. The cytotoxicity assay was performed in 96 wells flat bottom tissue culture plates (Nunc Nunclon). The cells ([…]) in 100.0 µl volume were seeded into each well. The plate was incubated at 37 °C in atmosphere of 5% (v/v) CO2 for 8 h. The wells were examined microscopically for the formation of monolayer of the cells. Various concentrations ranging from 1250.0 µg/ml to 19.5 µg/ml of the compound PC-1 (metelatropinyl ester) were added to the monolayer of cells. In +ve control wells, a known cytotoxic protein obtained from A. fumigatus, was used. […] After lysis of the cells, the plates were read at 540 nm using plate reader (Spectra Max 190, Molecular Device).
The toxicity of the compound was expressed as percentage with respect to that obtained in -ve control sample. The percent cytotoxicity was calculated using the formula given below. % Cytotoxicity = (OD in-ve control-OD in the test)/(OD in-ve control) × 100 [formula] […]

CCCCC(=O)OC(C)CC1NCC(C)=C1C (stereo not drawn) [PC-1, 2-(3,4-dimethyl-2,5-dihydro-1H-pyrrol-2-yl)-1-methylethyl pentanoate]
MIC (Aspergillus sp.): 87.5 µg/mL (≈ 366 µM)
amount of amphotericin B producing an equivalent diameter of zone of inhibition (A.fumigatus; 10 µg/disc of the compound, standard curve with amphotericin B): 2.67 µg
zone of inhibition at 5 µg/disc (A.fumigatus; Aspergillus fumigatus, 5.0 µg/disc, 48 hrs, read-out: Diameter of zone of inhibition): 6.25 mm
zone of inhibition at 10 µg/disc (A.fumigatus; Aspergillus fumigatus, 10.0 µg/disc, 48 hrs, read-out: Diameter of zone of inhibition): 8.5 mm
zone of inhibition at 20 µg/disc (A.fumigatus; Aspergillus fumigatus, 20.0 µg/disc, 48 hrs, read-out: Diameter of zone of inhibition): 9.25 mm
less potent as compared to amphotericin B (A.fumigatus; disc diffusion standard curve): 3.74 time
concentration completely non-toxic to the cells (RAW cells): up to 312.5 µg/ml
CT50 (dose cytotoxic to 50% of the cells) (RAW cells; RAW cells, MTT, 12 h): 889.2 µg/mL
less cytotoxic than the standard antifungal drug such as Amphotericin B (RAW cells; comparison with Amphotericin B): 57.8 times
